Measured values: US10111431B2, “Application of biofilm formation inhibiting compounds enhances control of citrus canker” (priority 2013, dated 2018)

Tests used:
[1] = tested on: X. citri subsp. citri on citrus fruit; test: Detached immature grapefruit fruit spray inoculation; assay type: in vivo, Xanthomonas citri subsp. citri; details: for decrease in CFU per square centimeter of fruit tissue compared with untreated control / canker symptom development on fruit surface (lesion numbers): D-leucine 10 mM, IAN 100 μg/ml; for canker symptom development on fruit surface (lesion numbers): applied along with pathogen, preliminary study; for log reduction in the number of CFU per square centimeter: fruit, 11 days after inoculation
[2] = tested on: biofilm formation and copper resistance related genes in Xac 306; test: qRT-PCR differential gene expression; assay type: cell-based, Xanthomonas citri subsp. citri; details: for expression of genes important for biofilm formation (qRT-PCR): IAN 100 μg/mL or D-leucine 10 mM, NB, 48 h, 15 genes, gyrA control; for expression of galU, gumB, gumD, copA and copB in planktonic or biofilm cells: in the presence of CuSO4, data not shown
Procedure: To investigate the mechanisms of D-leucine and IAN inhibiting Xac 306 biofilm formation, qRT-PCR analysis was used to determine differential gene expression for Xac306 cells with and without IAN (100 μg/mL) or D-leucine (10 mM). For this analysis, Xac306 was cultured in NB medium with or without biofilm inhibitor at 28° C. without shaking. Cells were collected after 48 h of incubation by centrifugation at 12,000×g for 5 min at 4° C. and used for RNA extraction. For the analysis of gene expression in Xac 306 planktonic and biofilm cells with sub-MICs CuSO4 concentrations, we followed the same procedure described for evaluation of resistance of Xac biofilm cells to copper in glass tubes. Both biofilm cells attached to the glass tube at the medium-air interface and planktonic cells in culture were used. Cells collected after 48 h of incubation in the presence of CuSO4 were washed by centrifugation at 12,000×g for 5 min at 4° C. with diethylpyrocarbonate treated water. Cells collected from five tubes were combined and served as one biological replicate. The pellet was stored at −80° C. until RNA extraction. Total RNA of Xac306 cells was isolated using RNA protect bacterial reagent (Qiagen, Valencia, Calif.) and RNeasy Mini Kit (Qiagen, Valencia, Calif.), following the manufacturer's instructions. The contaminated genomic DNA was removed using a TURBO DNA-free kit (Ambion, Austin, Tex.). RNA purity and quality were evaluated with a NanoDrop ND-1000 spectrophotometer (NanoDrop Technologies, Wilmington, Del.).
A one-step QRT-PCR was conducted using a 7500 fast real-time PCR system (Applied Biosystems, Foster City, Calif.) with a QuantiTect SYBR green RT-PCR kit (Qiagen, Valencia, Calif.) following the manufacturer's instructions. The gene specific primers (Table 1) were designed based on the genome sequence of Xac strain 306 (da Silver et al., 2002). In the biofilm inhibition mechanism studies, those primers targeted fifteen genes that were previously identified to be related bioflim formation in Xac strain 306 (Li and Wang, 2011). In the copper resistance analysis, those primers targeted the gum genes gumB and gumD polysaccharides—related gene galU, and copper resistance-related genes copA and copB (Teixeira et al., 2008; Behlau et al., 2012). The DNA gyrase subunit A encoding gene gyrA was used as endogenous control. The relative fold change in gene expression was calculated using the formula 2^−ΔΔCT (Livak and Schmittgen, 2001). qRT-PCR was repeated twice with four independent biological replicates each time.

[3] = tested on: Xac 306 on grapefruit leaves; test: Plant test in greenhouse, spray inoculation of grapefruit leaves; assay type: in vivo, Xanthomonas citri subsp. citri; details: for level of canker lesions on sprayed leaves / canker symptom development on grapefruit leaves (lesion numbers): D-leucine 10 mM, IAN 100 μg/mL; for level of canker lesions on sprayed leaves: CuSO4 100 μg/mL; for canker symptom development on grapefruit leaves: applied after (6 h) the pathogen inoculation; for canker symptom development on grapefruit leaves (lesion numbers): applied along with or prior to (6 h) pathogen inoculation; for log reduction in the number of CFU compared to untreated control: grapefruit leaves, 7 to 28 days after inoculation
Procedure: The effect of selected biofilm inhibitors on Xac infection/virulence-was investigated using 20-week-old potted grapefruit (Citrus paradise cv. Duncan grapefruit) plants in a quarantine greenhouse at the Citrus Research and Education Center, Lake Alfred, Fla. Copper (CuSO4, 100 μg/mL), D-leucine (10 mM), IAN (100 μg/mL) and a combination of these compounds were individually prepared in 100 ml of SDW. Bacterial inoculum was prepared by growing Xac 306 on NA plates at 28° C. for 48 h, suspending in SDW, adjusting concentration to approximately OD600=0.3 (5×10^8 CFU/mL). The inoculation was performed by a spray method as described previously (Li and Wang, 2012) with modifications. Briefly, the abaxial surfaces of fully expanded, immature leaves of each plant were sprayed with the following treatments: SDW, Xac 306, and Xac 306 combined with CuSO4 (100 μg/mL), D-leucine (10 mM), IAN (100 μg/mL), or a combination of these compounds. Silwett-L77 (silicone-polyether copolymer, Fisher) was added to each treatment at a 0.03% (V/V) final concentration. After inoculation, the plants were covered with plastic bags for 24 h to maintain a high (>90%) relative humidity and then kept in a greenhouse (approximately 60% relative humidity) for symptom development. All inoculations included a minimum of three immature leaves at a similar developmental stage from each plant, and each treatment comprised four plants. The experiments were repeated three times independently. SDW was applied as a negative control, and Xac306 mixed with SDW as positive control. To determine whether the timing of application of biofilm inhibitors in relation to Xac306 affected canker symptom suppression, the biofilm inhibitors were inoculated on leaves 6 h prior to or after inoculation with Xac306.
For bacterial population assays, the leaves of grapefruit plants were inoculated as described above. Two leaf discs randomly selected from each of three inoculated leaves were cut with a cork borer (0.8 cm in diameter) and then ground in 1 mL of SDW. The suspensions were serially diluted and plated on NA plates containing rifamycin. After incubation at 28° C. for 48 h, bacterial colonies were counted and the number of CFU per square centimeter of leaf tissue was calculated. The assays were repeated three times independently.

Xac306 biofilm formation = test: Static biofilm formation assay in 96-well polystyrene plates with crystal violet staining; assay type: cell-based, Xanthomonas citri subsp. citri; details: for dose dependence of Xac306 biofilm decrease: 0 to 20 mM for D-leucine and D-serine, 0 to 150 μg/mL for IAN; for decrease in biofilm mass: 10 mM for D-leucine and 100 μg/mL for IAN (below MIC); for effect on planktonic cell density: sub-MIC: 10 mM D-leucine, 100 μg/mL IAN, data not shown
Procedure: A static biofilm formation assay in 96-well polystyrene plates coupled with CV staining was performed as previously reported with modifications (Li and Wang, 2011). Briefly, a 96-well polystyrene plate (Nunclon surface, Nuncbrand, Denmark) was prepared with 170 μL NB plus 1.0% glucose per well. Aliquots of 20 μL each of the different concentrations of the tested compound were pipetted into eight wells containing 170 μL of NB plus 1.0% glucose. To each of these wells was added 10 μL of the standardized overnight Xac 306 culture (OD600=1.0). Control wells contained NB plus 1.0% glucose and SDW or 0.1% DMSO as a sterility control, or standardized overnight Xac 306 culture as a growth control. The plate was covered by a MicroWell lid (Nunclon), sealed with parafilm to prevent evaporation and incubated at 28° C. for 48 h without shaking. After incubation, the planktonic growth was measured at OD600. To quantify the amount of biofilms formed on the surfaces of the wells, the culture was removed from the wells. After drying, the wells were washed twice with 200 μl of SDW for 5 min, allowed to dry then 200 μl of 0.1% CV added. After 30 minutes, the CV was removed. The wells were washed with excess SDW to remove unbound CV and air dried in an inverted position for 2 h. Afterward, 200 μl of 95% ethanol was added to the wells and incubated for 30 min at room temperature to elute bound CV. The eluted CV was 2-fold diluted in double distilled water and the absorbance at 590 nm was measured. Each data point was averaged from eight replicate wells.

Structure (SMILES)	decrease in CFU per square centimeter of fruit tissue compared with untreated control [1]	canker symptom development on fruit surface (lesion numbers) [1]	log reduction in the number of CFU per square centimeter [1] [log]	expression of genes important for biofilm formation (qRT-PCR) [2]	expression of galU, gumB, gumD, copA and copB in planktonic or biofilm cells [2]	level of canker lesions on sprayed leaves [3]	canker symptom development on grapefruit leaves [3]	canker symptom development on grapefruit leaves (lesion numbers) [3]	log reduction in the number of CFU compared to untreated control [3] [log]	dose dependence of Xac306 biofilm decrease (Xac306 biofilm formation)	decrease in biofilm mass (Xac306 biofilm formation) [%]	effect on planktonic cell density (Xac306 biofilm formation)
CC(C)C[C@@H](N)C(=O)O [D-leucine]	approximately 50 fold	able to reduce canker symptom development	~1.6	no induction or repression of any of the tested genes	did not affect express of any of the gene tested	less than that sprayed with the pathogen alone	did not affect the development of canker symptoms	able to reduce canker symptom development	~1.0	decreased Xac306 biofilm in a dose-dependent manner	58	does not significantly decrease planktonic cell density
N#CCc1c[nH]c2ccccc12 [IAN, 3-indolylacetonitrile]	approximately 50 fold	able to reduce canker symptom development	~1.8	repression of chemotaxis and motility genes cheY, motB and pilB	did not affect express of any of the gene tested	less than that sprayed with the pathogen alone	did not affect the development of canker symptoms	able to reduce canker symptom development	~1.0	decreased Xac306 biofilm in a dose-dependent manner	65	does not significantly decrease planktonic cell density
